In the supplement of paper PMC4862054:
Where “and” joins values, the source holds several entries; their conditions need not be identical. Equal entries are not always repeated.

How the values were obtained:
Conditions in all cases: incubation time: 72 h
[1] = tested on: MDA-MB-453; test: drug sensitivity score (DSS), CellTiter-Glo (DSS (AUC-based score)); higher = stronger drug effect (viability inhibition or cytotoxicity); extreme values may be limits of the assay
Method in brief: (§1)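 Normalisation on every plate relied on 0.1 % DMSO and a positive kill control. The plates, 384-well format, held compound at 5 concentrations 10-fold apart across a compound-specific 10,000-fold range, and breast cancer cell lines in 20 µl suspension were incubated on them for 72 h before CellTox Green and then CellTiter-Glo readings. The drug sensitivity score derives from the area under the fitted dose-response curve.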

[2] = tested on: HCC1599; test: as above
Method in brief: as §1

[3] = tested on: MDA-MB-231; test: as above
Method in brief: as §1

[4] = tested on: HDQ-P1; test: as above
Method in brief: as §1

[5] = tested on: SK-BR-3; test: as above
Method in brief: as §1

[6] = tested on: DU-4475; test: as above
Method in brief: as §1

[7] = tested on: MDA-MB-436; test: as above
Method in brief: as §1

[8] = tested on: BT-549; test: as above
Method in brief: as §1

[9] = tested on: MDA-MB-468; test: as above
Method in brief: as §1

[10] = tested on: MDA-MB-453; test: drug sensitivity score (DSS), CellTiter-Blue viability (DSS (AUC-based score)); higher = stronger viability inhibition; extreme values may be limits of the assay
Experimental: (§2)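 DSRT with the CellTiter-Blue (resazurin reduction) viability readout, fluorescence 560/590 nm, 72 h incubation. Plates were normalised to DMSO and benzethonium chloride controls. DSS is computed from the area under the fitted dose-response curve (5 or 9 concentrations).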

[11] = tested on: HCC1599; test: as above
Experimental: as §2

[12] = tested on: MFM-223; test: as above
Experimental: as §2

[13] = tested on: Hs578T; test: as above
Experimental: as §2

[14] = tested on: HCC1143; test: as above
Experimental: as §2

[15] = tested on: CAL-51; test: as above
Experimental: as §2

[16] = tested on: CAL-148; test: as above
Experimental: as §2

[17] = tested on: BT-474; test: as above
Experimental: as §2

[18] = tested on: MDA-MB-231; test: as above
Experimental: as §2

[19] = tested on: HDQ-P1; test: as above
Experimental: as §2

[20] = tested on: SK-BR-3; test: as above
Experimental: as §2

[21] = tested on: CAL-85-1; test: as above
Experimental: as §2

[22] = tested on: HCC1937; test: as above
Experimental: as §2

[23] = tested on: MDA-MB-436; test: as above
Experimental: as §2

[24] = tested on: CAL-120; test: as above
Experimental: as §2

[25] = tested on: BT-549; test: as above
Experimental: as §2

[26] = tested on: MDA-MB-468; test: as above
Experimental: as §2

| Compound | drug sensitivity score [1] | drug sensitivity score [2] | drug sensitivity score [3] | drug sensitivity score [4] | drug sensitivity score [5] | drug sensitivity score [6] | drug sensitivity score [7] | drug sensitivity score [8] | drug sensitivity score [9] | drug sensitivity score [10] | drug sensitivity score [11] | drug sensitivity score [12] | drug sensitivity score [13] | drug sensitivity score [14] | drug sensitivity score [15] | drug sensitivity score [16] | drug sensitivity score [17] | drug sensitivity score [18] | drug sensitivity score [19] | drug sensitivity score [20] | drug sensitivity score [21] | drug sensitivity score [22] | drug sensitivity score [23] | drug sensitivity score [24] | drug sensitivity score [25] | drug sensitivity score [26] |
| --- | --- | --- | --- | --- | --- | --- | --- | --- | --- | --- | --- | --- | --- | --- | --- | --- | --- | --- | --- | --- | --- | --- | --- | --- | --- | --- |
| CN(c1ccccc1CNc1nc(Nc2ccc3c(c2)CC(=O)N3)ncc1C(F)(F)F)S(C)(=O)=O | 0 | 3.99 | 7.82 | 7.23 | 5.83 | 7.61 | 2.86 | 5.64 | 8.4 |  |  |  |  |  |  |  |  |  |  |  |  |  |  |  |  |  |
| COc1ncc(-c2ccc3nccc(-c4ccnnc4)c3c2)cc1NS(=O)(=O)c1ccc(F)cc1F | 19.4 | 9.77 | 10.3 | 19.4 | 20.6 | 7.12 | 11.6 | 16.8 | 13.9 | 25.7 | 17 | 20.6 | 15.1 | 14.6 | 21.4 | 17.3 | 19.9 | 13.3 | 21.1 | 25 | 16.8 | 12.3 | 14.2 | 16.3 | 13.6 | 14.2 |
| C[C@@]1(C(=O)Nc2ccc(F)nc2)CCCN1c1nc(Nc2cc(C3CC3)n[nH]2)c2cccn2n1 | 0 | 5.62 | 9.67 | 15.8 | 6.12 | 5.67 | 7.17 | 9.6 | 16.4 | 5.98 | 11.5 | 10.1 | 5.68 | 9.58 | 9.17 | 6.09 | 0 | 11 | 16 | 5.88 | 10.6 | 6.32 | 2.82 | 8.33 | 6.82 | 7.88 |
| Nc1nccc(-c2c(-c3ccc(F)cc3)ncn2C2CCCCC2)n1 | 0.568 | 0 | 0 | 0 | 0 | 0 | 0 | 0 | 5.85 |  |  |  |  |  |  |  |  |  |  |  |  |  |  |  |  |  |
| COc1c(C)cnc(Cn2cnc3c(Cl)nc(N)nc32)c1C [BIIB021] | 16.2 | 10.4 | 13.4 | 15.2 | 21.9 | 17.8 | 13.3 | 15.7 | 12.7 | 24.8 | 8.11 | 18.6 | 12.9 | 17 | 15.5 | 19.3 | 18.8 | 15.8 | 12.8 | 26.8 | 13.6 | 19.4 | 11.9 | 23.5 | 18.8 | 14.4 |
| CC(C)C[C@H](NC(=O)[C@H](Cc1ccccc1)NC(=O)c1cnccn1)B(O)O [Bortezomib] | 16.8 | 9.67 | 22.4 | 22.6 | 26.4 | 17.5 | 26 | 28.8 | 30.9 | 22.7 | 7.18 | 22.5 | 19.7 | 21.6 | 16.8 | 17.9 | 18.8 | 28.8 | 27.7 | 25.5 | 24.8 | 27.3 | 16.2 | 26.4 | 24.3 | 29.8 |
| CS(=O)(=O)OCCCCOS(C)(=O)=O [Busulfan] | 0 | 0 | 0 | 0 | 0 | 0 | 0 | 0 | 0 | 0 | 0 | 0 | 0 | 0 | 0 | 0 | 0 | 0 | 0 | 0 | 0 | 2.62 | 0 | 0 | 0 | 0 |
| C#Cc1cccc(Nc2ncnc3cc(OC)c(OCCCCCCC(=O)NO)cc23)c1 [CUDC-101] | 21.1 | 11.4 | 13.1 | 7.15 | 14.6 | 9.19 | 6.33 | 9 | 18.1 | 19.9 | 15.3 | 15.6 | 15.6 | 12.4 | 4.16 | 12.2 | 14.8 | 12 | 14.7 | 18.6 | 15 | 11.3 | 10.6 | 11.8 | 8.79 | 18 |
| COc1cccc2c1C(=O)c1c(O)c3c(c(O)c1C2=O)C[C@@](O)(C(C)=O)C[C@@H]3O[C@H]1C[C@H](N)[C@H](O)[C@H](C)O1 [Daunorubicin] | 3.7 | 2.8 | 6.97 | 3.57 | 6.15 | 7.7 | 6.85 | 9.34 | 10.7 | 3.7 | 1.88 | 2.14 | 9.16 | 10.9 | 13.7 | 13 | 7.7 | 13.5 | 5.31 | 13.1 | 5.47 | 14.9 | 10.8 | 13.1 | 9.47 | 11.1 |
| CN1CCN(c2ccc3nc(-c4c(N)c5c(F)cccc5[nH]c4=O)[nH]c3c2)CC1 [Dovitinib] | 0 | 0 | 0 | 0 | 0 | 0 | 0 | 0 | 0 | 0 | 0 | 0 | 0 | 0 | 0 | 0 | 0 | 0 | 0 | 0 | 0 | 3.16 | 0 | 0 | 0 | 0 |
| O=P(O)(NCCCl)NCCCl [Ifosfamide mustard] |  |  |  |  |  |  |  |  |  | 0 | 0 | 0 | 0 | 0 | 0 | 0 | 0 | 0 | 0 | 0 | 0 | 0 | 0 | 0 | 0 | 0 |
| CS(=O)(=O)CCNCc1ccc(-c2ccc3ncnc(Nc4ccc(OCc5cccc(F)c5)c(Cl)c4)c3c2)o1 [Lapatinib] | 1.41 | 0 | 0 | 2.38 | 10.8 | 0 | 0 | 0 | 0 | 17.8 and 17 |  |  | 3.66 and 4.18 | 0 | 0 | 3.64 and 1.81 | 17.2 and 17.8 |  | 0 | 25.7 and 24.2 | 6.56 and 6.25 |  | 4.07 and 1.46 |  | 3.9 and 2.66 | 8.9 and 8.18 |
| COc1cc(Nc2ncc(F)c(Nc3ccc4c(n3)NC(=O)C(C)(C)O4)n2)cc(OC)c1OC [R406] |  |  |  |  |  |  |  |  |  | 0 | 0 | 0 | 0 | 0 | 0 | 0 | 0 | 5.44 | 0 | 0 | 0 | 0 | 0 | 0 | 5.38 | 0 |
| Cc1cc(C(C)Nc2ccccc2)c2nc(N3CCOCC3)cc(=O)n2c1 (centres undefined) [TGX-221] | 0 | 0 | 0 | 0.256 | 0 | 0 | 0 | 2.27 | 4.69 |  |  |  |  |  |  |  |  |  |  |  |  |  |  |  |  |  |
| COc1cc(Nc2ncc(F)c(Nc3ccc4c(n3)NC(=O)C(C)(C)O4)n2)cc(OC)c1OC [Tamatinib] | 0 | 0 | 0 | 0 | 0 | 0 | 0 | 4.09 | 0 |  |  |  |  |  |  |  |  |  |  |  |  |  |  |  |  |  |
| c1ccc(C2CN3CCSC3=N2)cc1 (centres undefined) [Tetramisole] |  |  |  |  |  |  |  |  |  | 0 | 0 | 0 | 0 | 0 | 0 | 0 | 0 | 0 | 0 | 0 | 0 | 0 | 0 | 0 | 0 | 0 |
| C[C@@H]1CCN(C(=O)CC#N)C[C@@H]1N(C)c1ncnc2[nH]ccc12 [Tofacitinib] | 0 | 0 | 0 | 0 | 0 | 0 | 0 | 0 | 0 |  |  |  |  |  |  |  |  |  |  |  |  |  |  |  |  |  |
| FC(F)c1nc2ccccc2n1-c1nc(N2CCOCC2)nc(N2CCOCC2)n1 [ZSTK474] | 12.9 | 2.33 | 7.99 | 10.8 | 15.3 | 1.87 | 9.24 | 13.1 | 8.61 |  |  |  |  |  |  |  |  |  |  |  |  |  |  |  |  |  |
